The first test has as its target Steroidogenic factor 1 (Homo sapiens, UniProt Q13285). Description: SF-1 inhibitor potency, dose response, cell-based, CHO-K1, Gal4-SF-1 LBD, luciferase luminescence (AID 600).
Details: not given
Steroidogenic factor 1, sequence (Q13285 whole entry, the tested form may be a part): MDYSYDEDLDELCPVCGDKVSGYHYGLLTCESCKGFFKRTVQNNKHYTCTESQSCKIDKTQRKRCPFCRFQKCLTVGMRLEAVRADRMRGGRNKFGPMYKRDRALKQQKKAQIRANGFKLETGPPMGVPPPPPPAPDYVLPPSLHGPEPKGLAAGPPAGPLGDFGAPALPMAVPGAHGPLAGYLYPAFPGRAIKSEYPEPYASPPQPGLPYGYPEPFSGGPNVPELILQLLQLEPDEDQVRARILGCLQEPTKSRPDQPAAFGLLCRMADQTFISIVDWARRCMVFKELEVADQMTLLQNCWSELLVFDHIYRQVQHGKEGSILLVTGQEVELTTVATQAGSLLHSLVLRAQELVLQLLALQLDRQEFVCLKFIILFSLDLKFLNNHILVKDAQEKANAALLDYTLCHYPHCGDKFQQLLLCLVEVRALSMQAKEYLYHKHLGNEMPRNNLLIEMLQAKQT
As a reminder, the IC50 is the point on the concentration scale where inhibition reaches its midpoint. High values mean weaker potency in that assay, low ones greater potency in that assay. In the case of `CNC(=O)CCc1nc(-c2ccc(C(C)(C)C)cc2)no1` [3-[3-(4-tert-butylphenyl)-1,2,4-oxadiazol-5-yl]-N-methyl-propanamide], the IC50 worked out at 0.058 µM. Compound `CC1CCN(c2nc3ccc(C(=O)O)cc3s2)CC1` [2-(4-methyl-1-piperidinyl)-1,3-benzothiazole-6-carboxylic acid] had an IC50 of 2.25 µM. `C[C@@]1(CO)[C@H](O)CC[C@@]2(C)[C@H]1CC[C@H]1C[C@@H]3C[C@@]12CC[C@]3(O)CO` [6,13-di(hydroxymethyl)-2,6-dimethyl-(1S,2S,5R,6R,7R,10S,12R,13R)-tetracyclo[10.3.1.01,10.02,7]hexadecane-5,13-diol (Aphidicolin)] returned an IC50 of 0.55 µM. In turn, `Cc1ccc2[nH]c3c(N4CCN(Cc5ccc6c(c5)OCO6)CC4)ncnc3c2c1` returned an IC50 of 7.31 µM. `CN=c1scc(C)n1N=Cc1ccc(O)cc1O` [(4E)-4-[[(4-methyl-2-methylimino-1,3-thiazol-3-yl)amino]methylidene]-3-oxidanyl-cyclohexa-2,5-dien-1-one] gave a half-inhibitory concentration (IC50) of 15.2 µM. Same read-out and setting: to `Nc1ccc(-c2nc3c(Cl)cc(N)cc3[nH]2)cc1` [MLS000034140] belongs 5.09 µM; to `Fc1ccc(-c2nnc(NC3=NCCCCC3)o2)cc1` [5-(4-fluorophenyl)-N-(3,4,5,6-tetrahydro-2H-azepin-7-yl)-1,3,4-oxadiazol-2-amine], 4.83 µM.

With `COc1ccccc1-c1nnc2sc(-c3ccc(N(C)C)cc3)nn12` [4-[3-(2-methoxyphenyl)-[1,2,4]triazolo[3,4-b][1,3,4]thiadiazol-6-yl]-N,N-dimethyl-aniline], the 50% inhibitory concentration (IC50) was 6.26 µM. Turning to `Cc1ccc2c(c1)[nH]c1c(N3CCN(Cc4ccccc4)CC3)ncnc12` [SMR000044826], the IC50 was over 3.67 µM. As for `Cc1ccccc1NC(=O)N1CCCC(c2nc(-c3ccc(C(C)C)cc3)no2)C1` (stereo not drawn) [3-[3-(4-Isopropyl-phenyl)-[1,2,4]oxadiazol-5-yl]-piperidine-1-carboxylic acid o-tolylamide], the half-maximal inhibitory concentration (IC50) worked out at 7.13 µM.

Compound `Cn1nc(CC(=O)Nc2ccc(N3CCN(C(=O)OC(C)(C)C)CC3)cc2)c2ccccc2c1=O` [4-[4-[[2-(3-methyl-4-oxo-1-phthalazinyl)-1-oxoethyl]amino]phenyl]-1-piperazinecarboxylic acid tert-butyl ester] came in with an IC50 of 2.55 µM. `COC(=O)c1nn(-c2ccc(-c3ccccc3)cc2)cc1O` [4-hydroxy-1-(4-phenylphenyl)-3-pyrazolecarboxylic acid methyl ester] showed an IC50 of over 33 µM. In the case of `O=C(Oc1ccc(-c2nc(-c3ccccn3)no2)cc1)c1ccccc1` [4-[3-(2-pyridinyl)-1,2,4-oxadiazol-5-yl]phenyl benzoate], 6.83 µM corresponded to half-maximal inhibition (IC50). The same measure, in the same setting: as for `Cc1cccc2cc(C#N)c(SCC(=O)N3CC(=O)Nc4ccccc43)nc12` [2-[[2-keto-2-(3-keto-2,4-dihydroquinoxalin-1-yl)ethyl]thio]-8-methyl-quinoline-3-carbonitrile], the figure is over 3.67 µM; as for `Cc1cc(C)n(-c2ccc3cccc(NS(C)(=O)=O)c3n2)n1` [MLS000062301], 3.42 µM; as for `CCN(CC)c1ccc2c(c1)OC(=N)C(C#N)C2c1cccnc1` (stereo not drawn) [2-amino-7-(diethylamino)-4-(3-pyridinyl)-4H-1-benzopyran-3-carbonitrile], over 3.67 µM. Same read-out and setting: as for `COC(=O)c1ccc(Oc2cc(C)nc(-n3nc(C)cc3C)n2)cc1` [4-[2-(3,5-dimethylpyrazol-1-yl)-6-methyl-pyrimidin-4-yl]oxybenzoic acid methyl ester], the figure is 8.58 µM; as for `Cc1c2ccncc2c(C)c2c1[nH]c1ccccc12` [5,11-dimethyl-2H-pyrido[4,3-b]carbazole], over 3.67 µM. Same read-out and setting: as for `COc1cc(CN=O)ccc1OCc1ccc(C(=O)O)cc1` [4-[[4-(hydroximinomethyl)-2-methoxy-phenoxy]methyl]benzoic acid], the figure is 1.16 µM; as for `COc1ccc(-c2nc(-c3ccccc3)no2)c(OC)c1` [5-(2,4-dimethoxyphenyl)-3-phenyl-1,2,4-oxadiazole], 3.52 µM. `COc1cc(C2Nc3cccc4cccc(c34)N2)cc(OC)c1OC(C)=O` [MLS000078084] gave an IC50 of 7.72 µM. Take `COc1ccc(C(NC(C)=O)c2ccc3cccnc3c2O)c(OC)c1` (stereo not drawn) [MLS000109349]: the IC50 is over 3.67 µM. The compound `c1ccc2c(c1)CCN(c1nc3cc4c(cc3s1)OCCO4)C2` [2-(3,4-dihydro-1H-isoquinolin-2-yl)-6,7-dihydro-[1,4]dioxino[2,3-f][1,3]benzothiazole] yielded an IC50 of 5.34 µM. `CCOC(=O)c1c(C)[nH]c(C(=O)C(C)OC(=O)c2cccc(OCc3c(C)noc3C)c2)c1C` (stereo not drawn) [MLS000054923]: the concentration for half-maximal inhibition (IC50) worked out at 8.24 µM. `C[C@H]1CCCC=CC2C[C@H](O)CC2[C@H](O)C=CC(=O)O1` (stereo partly drawn) [(7S,12R,15S)-12,15-dihydroxy-7-methyl-8-oxabicyclo[11.3.0]hexadeca-2,10-dien-9-one] gave a concentration for half-maximal inhibition (IC50) of 5.61 µM. `Cc1cccc(N2CCN(C(=O)CSCc3c(C)noc3C)CC2)c1C` [2-[(3,5-dimethyl-1,2-oxazol-4-yl)methylsulfanyl]-1-[4-(2,3-dimethylphenyl)piperazin-1-yl]ethanone] yielded a 50% inhibitory concentration (IC50) of 0.876 µM.

In turn, `O=S1(=O)C=C(Sc2nnc(-c3ccccc3)o2)c2ccccc21` displayed a 50% inhibitory concentration (IC50) of 3.9 µM. `c1ccc(-n2nnc3c(N4CCOCC4)ncnc32)cc1` [4-(3-phenyl-7-triazolo[4,5-d]pyrimidinyl)morpholine] registered a 50% inhibitory concentration (IC50) of over 99 µM. The compound `O=C(O)c1cccc(COc2ccccc2Cl)c1` [3-[(2-chloranylphenoxy)methyl]benzoic acid] showed a half-maximal inhibitory concentration (IC50) of 0.69 µM. In turn, `O=C(Nc1ccccc1)c1cccc(-c2nnc(-c3ccccc3)o2)c1` [MLS000100081] displayed a 50% inhibitory concentration (IC50) of 4.2 µM.

For the compound `O=C(CSc1nnnn1C1CC2CCC1C2)Nc1ccnc2ccccc12` (stereo not drawn) [2-[(1-bicyclo[2.2.1]hept-2-yl-1H-tetrazol-5-yl)thio]-N-4-quinolinylacetamide], it took 0.977 µM to reach half-maximal inhibition (IC50).

`CCOc1ccc(OCc2cccc(C(=O)N3CCOCC3)c2)cc1` [4-{3-[(4-ethoxyphenoxy)methyl]benzoyl}morpholine] came in with a half-maximal inhibitory concentration (IC50) of over 1.22 µM.

As for `Clc1ccc(OCCN2CCN(c3ncnc4sccc34)CC2)cc1` [4-[4-[2-(4-chloranylphenoxy)ethyl]piperazin-1-yl]thieno[2,3-d]pyrimidine], half-maximal inhibition (IC50) was put at 3.44 µM. `Clc1ccc(-n2ncc3c(N4CCCC4)ncnc32)cc1` [1-(4-chlorophenyl)-4-(1-pyrrolidinyl)pyrazolo[3,4-d]pyrimidine]: the half-inhibitory concentration (IC50) turned out to be 3.17 µM.

`CCOc1ccc(Nc2cc(C)nc(-n3nc(C)cc3C)n2)cc1` [2-(3,5-dimethyl-1-pyrazolyl)-N-(4-ethoxyphenyl)-6-methyl-4-pyrimidinamine] registered a half-maximal inhibitory concentration (IC50) of 7.83 µM. Still for that read-out and setting: to `O=C(Nc1nc(-c2ccc(Cl)s2)cs1)c1ccncc1` [MLS000098514] belongs over 99 µM; to `CCOc1ccc(-c2nc(CSCC(=O)NCc3ccco3)c(C)o2)cc1` [2-({[2-(4-ethoxyphenyl)-5-methyl-1,3-oxazol-4-yl]methyl}thio)-N-(2-furylmethyl)acetamide], 0.189 µM; to `O=C(c1ccc2c3c(cccc13)C(=O)N(O)C2=O)N1CCCCC1` [2-hydroxy-6-(piperidine-1-carbonyl)benzo[de]isoquinoline-1,3-dione], 1.92 µM.

Compound `CC(=O)Nc1ccc(SCC(=O)c2cc(C)n(Cc3cccs3)c2C)cc1` [MLS000058142] had an IC50 of 4 µM.

For `CC1(C)CC(=O)C2=C(C1)Oc1nc3ccccc3cc1C2C(C#N)C#N` (stereo not drawn) [2-(1-keto-3,3-dimethyl-4,12-dihydro-2H-chromeno[2,3-b]quinolin-12-yl)malononitrile], the midpoint of inhibition, the IC50, lay at 7.53 µM.

The compound `c1c2c(cc3sc(N4CCOCC4)nc13)OCCO2` [2-(4-morpholinyl)-6,7-dihydro-[1,4]dioxino[2,3-f][1,3]benzothiazole] registered an IC50 of over 3.67 µM. With `Nc1nnnn1N=C/C(Br)=C/c1ccccc1` [1-[[(Z)-2-bromanyl-3-phenyl-prop-2-enylidene]amino]-1,2,3,4-tetrazol-5-amine], half-maximal inhibition (IC50) required 3.17 µM.

The same test, now with this note: inactive by the depositor's call.
In turn, `CCOC(=O)N1CCC(NC(=O)C2CCCN(Cc3nc(-c4cccc(Cl)c4)oc3C)C2)CC1` (stereo not drawn) [4-[[1-[[2-(3-chlorophenyl)-5-methyl-oxazol-4-yl]methyl]nipecotoyl]amino]piperidine-1-carboxylic acid ethyl ester] had a concentration for half-maximal inhibition (IC50) of 11.3 µM. Consider `Cn1c(-c2ccccc2)cc2c3no[n+]([O-])c3ccc21` [6-methyl-3-oxidanidyl-7-phenyl-pyrrolo[2,3-g][2,1,3]benzoxadiazol-3-ium], for which half-maximal inhibition (IC50) required 15 µM. Consider `O=C1C(=CNc2ccc3c(c2)OCO3)CCc2ccccc21` [(2E)-2-[(1,3-benzodioxol-5-ylamino)methylene]tetralin-1-one], for which half-maximal inhibition (IC50) was put at 12.3 µM. `Oc1c(CN2CCCCC2)cc(COCc2ccccc2)c2cccnc12` [5-(benzoxymethyl)-7-(piperidinomethyl)quinolin-8-ol] registered a concentration for half-maximal inhibition (IC50) of 27.1 µM. Turning to `COc1cc(CSc2nnnn2-c2ccc(C)cc2)cc(OC)c1OC` [1-(4-methylphenyl)-5-[(3,4,5-trimethoxybenzyl)thio]-1H-tetrazole], the IC50 was determined as 16.9 µM. On to `COc1ccc2c(c1)[nH]c1c(N3CCN(Cc4ccc5c(c4)OCO5)CC3)ncnc12` [4-[4-(1,3-benzodioxol-5-ylmethyl)piperazin-1-yl]-7-methoxy-5H-pyrimido[5,4-b]indole], for which the 50% inhibitory concentration (IC50) is 13.2 µM.

For the compound `COc1cc(C(=O)Oc2c(CN3CCOCC3)cc(Cl)c3cccnc23)cc(OC)c1OC` [3,4,5-trimethoxybenzoic acid [5-chloro-7-(4-morpholinylmethyl)-8-quinolinyl] ester], half-maximal inhibition (IC50) required 12.3 µM. Same read-out and setting: as for `COc1ccc(CCNc2c(C)c(C)nc3ncnn23)cc1` [(5,6-Dimethyl-[1,2,4]triazolo[1,5-a]pyrimidin-7-yl)-[2-(4-methoxy-phenyl)-ethyl]-amine], the figure is 15.1 µM. `Fc1ccc2[nH]c3c(N4CCSCC4)ncnc3c2c1` [MLS000078401] gave an IC50 of 11.8 µM. As for `CCCCOC(=O)c1[nH]c2c(c1C)C(=O)CC(c1cc(OC)c(OC)c(OC)c1)C2` (stereo not drawn), the half-inhibitory concentration (IC50) turned out to be 16.9 µM.

`CCCCOc1ncnc2c1[nH]c1ccc(F)cc12` [4-butoxy-8-fluoranyl-5H-pyrimido[5,4-b]indole] came in with an IC50 of 11.4 µM.
